Reference: ChEMBL document CHEMBL1201862, “PubChem BioAssay data set” (2004)
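All cell lines were grown in 96-well plates and treated with compound for 48 hours. The concentration for 50% growth inhibition is given as GI50.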 Activity calls are given as the source filed them. Rule as the data show it: active = GI50 up to about 1.1 µM and inactive = higher.

Key:
Assay in all cases: DTP human tumour cell line panel, 48 h
HT-29 = test system: HT-29
A498 = test system: A498
RPMI-8226 = test system: RPMI-8226
UACC-62 = test system: UACC-62
HL-60 = test system: HL-60
CCRF-CEM = test system: CCRF-CEM
SF-268 = test system: SF-268
UO-31 = test system: UO-31
COLO 205 = test system: COLO 205
SK-MEL-28 = test system: SK-MEL-28
SF-295 = test system: SF-295
OVCAR-4 = test system: OVCAR-4
TK-10 = test system: TK-10
SK-MEL-5 = test system: SK-MEL-5
CAKI-1 = test system: CAKI-1
OVCAR-8 = test system: OVCAR-8
NCI/ADR-RES = test system: NCI/ADR-RES
DU-145 = test system: DU-145
MDA-MB-231 = test system: MDA-MB-231
T47D = test system: T47D

Measured: GI50

CCCCOC(=O)C1C(c2ccc(Cl)cc2)NC(c2ccc(Cl)cc2)C(C(=O)OCCCC)S1(=O)=O (stereo not drawn)
inactive: HT-29 > 100 µM | A498 > 100 µM | RPMI-8226 > 100 µM | UACC-62 > 100 µM | HL-60 8.83 µM | CCRF-CEM > 100 µM | SF-268 > 100 µM | UO-31 > 100 µM | COLO 205 > 100 µM | SK-MEL-28 > 100 µM | SF-295 > 100 µM | OVCAR-4 > 100 µM | TK-10 > 100 µM | SK-MEL-5 > 100 µM | CAKI-1 > 100 µM | OVCAR-8 > 100 µM

O=[N+]([O-])c1cccnc1NCC1(CO)CCCC1
inactive: HT-29 19.3 µM | A498 39.6 µM | RPMI-8226 20.2 µM | NCI/ADR-RES 20 µM | HL-60 22.4 µM | DU-145 36 µM | CCRF-CEM 29.4 µM | SF-268 32.2 µM | SK-MEL-28 23.2 µM | SF-295 23.8 µM | OVCAR-4 36.5 µM | TK-10 27.2 µM | SK-MEL-5 17.1 µM | OVCAR-8 19.4 µM

COc1ccc(C2SC(=N)Nc3c2c(C)nn3C(=O)Cc2ccccc2)cc1 (stereo not drawn)
inactive: HT-29 > 100 µM | MDA-MB-231 > 100 µM | A498 > 100 µM | RPMI-8226 > 100 µM | UACC-62 > 100 µM | HL-60 > 100 µM | DU-145 > 100 µM | CCRF-CEM > 100 µM | SF-268 > 100 µM | UO-31 > 100 µM | COLO 205 > 100 µM | SK-MEL-28 > 100 µM | T47D > 100 µM | SF-295 > 100 µM | TK-10 > 100 µM | SK-MEL-5 > 100 µM | CAKI-1 > 100 µM | OVCAR-8 > 100 µM

NCC(NC(=O)OCc1ccccc1)C(=O)O (stereo not drawn)
inactive: HT-29 > 50 µM | A498 > 50 µM | RPMI-8226 > 50 µM | UACC-62 > 50 µM | HL-60 > 50 µM | CCRF-CEM > 50 µM | SF-268 > 50 µM | UO-31 > 50 µM | COLO 205 > 50 µM | SK-MEL-28 > 50 µM | SF-295 > 50 µM | OVCAR-4 > 50 µM | TK-10 > 50 µM | SK-MEL-5 > 50 µM | CAKI-1 > 50 µM | OVCAR-8 > 50 µM

Cc1nc(O)nc(N/N=C/c2c3ccccc3c(Cl)c3ccccc23)c1C(=O)Nc1ccc(Cl)cc1
inactive: HT-29 55.7 µM | MDA-MB-231 > 100 µM | A498 47.5 µM | RPMI-8226 > 100 µM | UACC-62 50.5 µM | HL-60 19 µM | DU-145 > 100 µM | CCRF-CEM 32.3 µM | SF-268 > 100 µM | UO-31 > 100 µM | SK-MEL-28 > 100 µM | T47D > 100 µM | OVCAR-4 45.5 µM | TK-10 47.6 µM | SK-MEL-5 41.8 µM | CAKI-1 99.5 µM | OVCAR-8 68.9 µM

C=CCN(c1cc(OCc2ccccc2)c2c(c1)c(C)cn2S(=O)(=O)c1ccccc1)S(C)(=O)=O
inactive: HT-29 > 100 µM | MDA-MB-231 > 100 µM | RPMI-8226 > 100 µM | UACC-62 > 100 µM | NCI/ADR-RES > 100 µM | HL-60 > 100 µM | DU-145 > 100 µM | CCRF-CEM > 100 µM | SF-268 > 100 µM | COLO 205 > 100 µM | SK-MEL-28 > 100 µM | T47D > 100 µM | SF-295 > 100 µM | OVCAR-4 > 100 µM | TK-10 > 100 µM | SK-MEL-5 > 100 µM | CAKI-1 > 100 µM | OVCAR-8 > 100 µM

COC(=O)CCCc1ccc2c(c1)CC1(C2)Cc2cc3c(cc2C1)CCCC3
inactive: HT-29 29.6 µM | MDA-MB-231 > 100 µM | A498 41.9 µM | RPMI-8226 16 µM | UACC-62 21.1 µM | NCI/ADR-RES 47.6 µM | HL-60 12.4 µM | UO-31 86.7 µM | COLO 205 20.5 µM | T47D 50.7 µM | SF-295 45.7 µM | OVCAR-4 42.5 µM | TK-10 > 100 µM | SK-MEL-5 19.2 µM | OVCAR-8 44.5 µM

O=C(NC(CCCCN1C(=O)c2ccccc2C1=O)P(=O)(Oc1ccccc1)Oc1ccccc1)OCc1ccccc1 (stereo not drawn)
inactive: HT-29 > 100 µM | RPMI-8226 > 100 µM | UACC-62 > 100 µM | NCI/ADR-RES > 100 µM | DU-145 > 100 µM | SF-268 > 100 µM | UO-31 > 100 µM | COLO 205 > 100 µM | SK-MEL-28 > 100 µM | T47D > 100 µM | SF-295 > 100 µM | TK-10 > 100 µM | SK-MEL-5 > 100 µM | CAKI-1 > 100 µM | OVCAR-8 > 100 µM

CC(C)(C)Nc1noc(=O)n1C(C)(C)C
inactive: HT-29 > 100 µM | MDA-MB-231 > 100 µM | A498 > 100 µM | RPMI-8226 > 100 µM | UACC-62 > 100 µM | NCI/ADR-RES > 100 µM | HL-60 > 100 µM | DU-145 > 100 µM | CCRF-CEM > 100 µM | SF-268 > 100 µM | UO-31 > 100 µM | COLO 205 > 100 µM | SK-MEL-28 > 100 µM | SF-295 > 100 µM | OVCAR-4 > 100 µM | TK-10 > 100 µM | SK-MEL-5 > 100 µM | CAKI-1 > 100 µM | OVCAR-8 > 100 µM

O=c1[nH]nc(Cc2ccc([N+](=O)[O-])cc2)[nH]1
inactive: HT-29 > 100 µM | A498 > 100 µM | RPMI-8226 > 100 µM | UACC-62 > 100 µM | NCI/ADR-RES > 100 µM | HL-60 > 100 µM | DU-145 > 100 µM | CCRF-CEM > 100 µM | SF-268 > 100 µM | UO-31 52.5 µM | COLO 205 > 100 µM | SK-MEL-28 > 100 µM | T47D > 100 µM | SF-295 > 100 µM | OVCAR-4 > 100 µM | TK-10 > 100 µM | SK-MEL-5 > 100 µM | CAKI-1 > 100 µM | OVCAR-8 > 100 µM

C=C(C)[C@H]1C=C[C@@H](OC(C)=O)[C@@]2(COC(C)=O)[C@H](OC(=O)CCC)[C@H]3[C@@H](OC(C)=O)[C@@H](C)C[C@]3(O)C(=O)[C@@](C)(OC(C)=O)[C@H]12
inactive: HT-29 38.7 µM | MDA-MB-231 56.9 µM | A498 67 µM | RPMI-8226 30.3 µM | UACC-62 66.5 µM | NCI/ADR-RES 42.5 µM | HL-60 33.5 µM | CCRF-CEM 42.4 µM | SF-268 67 µM | UO-31 33.4 µM | COLO 205 22 µM | SK-MEL-28 80 µM | T47D 27 µM | OVCAR-4 35.6 µM | TK-10 32.2 µM | SK-MEL-5 34.7 µM | CAKI-1 > 100 µM | OVCAR-8 29.7 µM

O=C1C(=CNc2ccccc2Cl)C(=O)N(c2ccccc2)C(=O)N1c1ccccc1
inactive: HT-29 > 100 µM | MDA-MB-231 > 100 µM | A498 85.1 µM | RPMI-8226 > 100 µM | UACC-62 > 100 µM | NCI/ADR-RES > 100 µM | CCRF-CEM > 100 µM | SF-268 > 100 µM | UO-31 > 100 µM | COLO 205 > 100 µM | T47D > 100 µM | SF-295 > 100 µM | OVCAR-4 > 100 µM | TK-10 > 100 µM | SK-MEL-5 > 100 µM | CAKI-1 > 100 µM | OVCAR-8 23.7 µM

Clc1ccc(Cc2nc3ccccc3o2)cc1
inactive: HT-29 40.2 µM | MDA-MB-231 > 100 µM | RPMI-8226 27.6 µM | UACC-62 > 100 µM | NCI/ADR-RES 42 µM | HL-60 40.2 µM | DU-145 > 100 µM | CCRF-CEM 40.1 µM | SF-268 > 100 µM | UO-31 67.6 µM | COLO 205 74.6 µM | SK-MEL-28 > 100 µM | T47D 27.2 µM | SF-295 57.8 µM | OVCAR-4 48.2 µM | TK-10 > 100 µM | SK-MEL-5 31.3 µM | CAKI-1 54.8 µM | OVCAR-8 > 100 µM

CCN1C[C@]2(C)CC[C@H](OC)C34C1C([C@H](OC(C)=O)[C@@H]32)[C@@]1(OC)C[C@H](OC)[C@H]2C[C@@H]4[C@@H]1[C@H]2O
inactive: HT-29 > 100 µM | A498 > 100 µM | RPMI-8226 > 100 µM | UACC-62 > 100 µM | HL-60 > 100 µM | CCRF-CEM > 100 µM | SF-268 > 100 µM | UO-31 > 100 µM | COLO 205 55.5 µM | SK-MEL-28 > 100 µM | SF-295 > 100 µM | OVCAR-4 > 100 µM | TK-10 > 100 µM | SK-MEL-5 > 100 µM | CAKI-1 > 100 µM | OVCAR-8 > 100 µM

COc1cc2oc(-c3ccccc3)cc(=O)c2c(O)c1C
inactive: HT-29 > 100 µM | A498 > 100 µM | RPMI-8226 > 100 µM | UACC-62 > 100 µM | HL-60 > 100 µM | CCRF-CEM > 100 µM | SF-268 > 100 µM | UO-31 > 100 µM | COLO 205 > 100 µM | SK-MEL-28 > 100 µM | SF-295 > 100 µM | OVCAR-4 > 100 µM | TK-10 > 100 µM | SK-MEL-5 > 100 µM | CAKI-1 > 100 µM | OVCAR-8 > 100 µM

CC1=C2C(=O)O[C@@H](c3ccoc3)[C@]2(C)CCC1=O [FRAXINELLONONE]
inactive: MDA-MB-231 > 100 µM | A498 > 100 µM | RPMI-8226 > 100 µM | UACC-62 > 100 µM | NCI/ADR-RES > 100 µM | DU-145 > 100 µM | CCRF-CEM > 100 µM | UO-31 > 100 µM | COLO 205 > 100 µM | SK-MEL-28 > 100 µM | T47D > 100 µM | SF-295 > 100 µM | SK-MEL-5 > 100 µM | CAKI-1 > 100 µM | OVCAR-8 > 100 µM
